Patent US20150105252A1, “SUBSTITUTED PYRAZOLES AS HERBICIDES” (E I DU PONT DE NEMOURS AND COMPANY, priority 2013, published 2015)

What was measured:
pigweed = assay: Test D postemergence; format: in vivo, Amaranthus retroflexus; conditions: scale 0 to 100
Source text: (§1) Seeds of plant species selected from bluegrass (annual bluegrass, Poa annua), blackgrass (Alopecurus myosuroides), canarygrass (littleseed canarygrass, Phalaris minor), chickweed (common chickweed, Stellaria media), galium (catchweed bedstraw, Galium aparine), bromegrass, downy (downy bromegrass, Bromus tectorum), field poppy (Papaver rhoeas), field violet (Viola arvensis), foxtail, green (green foxtail, Setaria viridis), deadnettle (henbit deadnettle, Lamium amplexicaule), ryegrass, Italian (Italian ryegrass, Lolium multiflorum), kochia (Kochia scoparia), lambsquarters (Chenopodium album), oilseed rape (Brassica napus), pigweed (redroot pigweed, Amaranthus retroflexus), chamomile (scentless chamomile, Matricaria inodora), speedwell (bird's-eye speedwell, Veronica persica), barley, spring (spring barley, Hordeum vulgare), wheat, spring (spring wheat, Triticum aestivum), buckwheat, wild (wild buckwheat, Polygonum convolvulus), mustard, wild (wild mustard, Sinapis arvensis), oat, wild (wild oat, Avena fatua), radish, wild (wild radish, Raphanus raphanistrum), windgrass (Apera spica-venti), Russian thistle (Salsola kali), barley, winter (winter barley, Hordeum vulgare), and wheat, winter (winter wheat, Triticum aestivum) were planted into a silt loam soil and treated preemergence with test chemicals formulated in a non-phytotoxic solvent mixture which included a surfactant.
(§2) At the same time, these species were planted in pots containing Redi-Earth® planting medium (Scotts Company, 14111 Scottslawn Road, Marysville, Ohio 43041) comprising spaghnum peat moss, vermiculite, wetting agent and starter nutrients and treated with postemergence applications of the test chemicals formulated in the same manner. Plants ranged in height from 2 to 18 cm (1- to 4-leaf stage). Treated plants and controls were maintained in a controlled growth environment for 14 to 21 days after which time all species were compared to controls and visually evaluated. Plant response ratings, summarized in Table D, are based on a scale of 0 to 100 where 0 is no effect and 100 is complete control. A dash (-) response means no test result.

oilseed rape = assay: Test D postemergence; format: in vivo, Brassica napus; conditions: scale 0 to 100
Method in brief: (§3)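 Visual 0-100 rating (100 = complete control) against untreated plants, made 14 to 21 days after treatment in a controlled environment. Compounds, formulated with surfactant in non-phytotoxic solvent, were applied either to seeds just sown in silt loam or to 1- to 4-leaf plants (2 to 18 cm) grown in peat-based medium.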

lambsquarters [1] = assay: Test D preemergence; format: in vivo, Chenopodium album; conditions: Preemergence, scale 0 to 100
Source text: as §1, §2

oat, wild = assay: Test D postemergence; format: in vivo, Avena fatua; conditions: scale 0 to 100
Method in brief: as §3

ryegrass, Italian = assay: Test D preemergence; format: in vivo, Lolium multiflorum; conditions: Preemergence, scale 0 to 100
Source text: as §1, §2

bromegrass, downy = assay: Test D preemergence; format: in vivo, Bromus tectorum; conditions: Preemergence, scale 0 to 100
Source text: as §1, §2

field poppy = assay: Test D postemergence; format: in vivo, Papaver rhoeas; conditions: scale 0 to 100
Source text: as §1, §2

canarygrass = assay: Test D postemergence; format: in vivo, Phalaris minor; conditions: scale 0 to 100
Source text: as §1, §2

buckwheat, wild = assay: Test D preemergence; format: in vivo, Polygonum convolvulus; conditions: Preemergence, scale 0 to 100
Source text: as §1, §2

bluegrass = assay: Test D postemergence; format: in vivo, Poa annua; conditions: scale 0 to 100
Source text: as §1, §2

lambsquarters [2] = assay: Test D postemergence; format: in vivo, Chenopodium album; conditions: scale 0 to 100
Method in brief: as §3

arrowleaf sida = assay: Test F preemergence; format: in vivo, Sida rhombifolia; conditions: Preemergence, scale 0 to 100
Source text: Seeds of plant species selected from corn (Zea mays), soybean (Glycine max), velvetleaf (Abutilon theophrasti), lambsquarters (Chenopodium album), wild poinsettia (Euphorbia heterophylla), pigweed, palmer (palmer pigweed, Amaranthus palmeri), common waterhemp (Amaranthus rudis), surinam grass (Brachiaria decumbens), large crabgrass (Digitaria sanguinalis), crabgrass, Brazil (Brazilian crabgrass, Digitaria horizontalis), fall panicum (Panicum dichotomiflorum), giant foxtail (Setaria faberii), green foxtail (Setaria viridis), goosegrass (Eleusine indica), johnsongrass (Sorghum halepense), common ragweed (Ambrosia elation), barnyardgrass (Echinochloa crus-galli), southern sandbur (Cenchrus echinatus), arrowleaf sida (Sida rhombifolia), Italian ryegrass (Lolium multiflorum), dayflower, VA (Virginia (VA) dayflower, Commelina virginica), field bindweed (Convolvulus arvensis), cocklebur (common cocklebur, Xanthium strumarium), morningglory (Ipomoea coccinea), nightshade (eastern black nightshade, Solanum ptycanthum), kochia (Kochia scoparia), yellow nutsedge (Cyperus esculentus), and hairy beggarticks (Bidens pilosa), were planted into a silt loam soil and treated preemergence with test chemicals formulated in a non-phytotoxic solvent mixture which included a surfactant.
At the same time, plants from these crop and weed species and also horseweed (Canada horseweed, Conyza canadensis), smartweed (ladysthumb smartweed, Polygonum persicaria), waterhemp_RES1, (ALS & Triazine resistant common waterhemp, Amaranthus rudis), and waterhemp_RES2, (ALS & HPPD resistant common waterhemp, Amaranthus rudis) were treated with postemergence applications of test chemicals formulated in the same manner. Plants ranged in height from 2 to 18 cm for postemergence treatments (1- to 4-leaf stage). Treated plants and controls were maintained in a greenhouse for 14 to 21 days, after which time all species were compared to controls and visually evaluated. Plant response ratings, summarized in Table F, are based on a scale of 0 to 100 where 0 is no effect and 100 is complete control. A dash (-) response means no test result.

For `CCCc1cc(C(=O)NC2CC2)nn1Cc1cc(C(F)(F)F)nn1C` [Compound 202], the “Pigweed plant response rating” value (pigweed; Postemergence, 31 g ai/ha) was 70, the “Pigweed plant response rating” value (pigweed; Postemergence, 125 g ai/ha) was 80 and the “Pigweed plant response rating” value (pigweed; Postemergence, 250 g ai/ha) was 85. For the same compound, the “Pigweed plant response rating” value (pigweed; postemergence, 62 g ai/ha) was 70, the “Oilseed Rape plant response rating” value (oilseed rape; Postemergence, 31 g ai/ha) was 40 and the “Oilseed Rape plant response rating” value (oilseed rape; Postemergence, 125 g ai/ha) was 50. The “Oilseed Rape plant response rating” value (oilseed rape; Postemergence, 250 g ai/ha) was 60, the “Oilseed Rape plant response rating” value (oilseed rape; postemergence, 62 g ai/ha) was 40 and the “Plant response rating, Lambsquarters” value (lambsquarters [1]; 62 g ai/ha) was 75. For the same compound, the “Plant response rating, Lambsquarters” value (lambsquarters [1]; 125 g ai/ha) was 100, the “Plant response rating, Lambsquarters” value (lambsquarters [1]; 250 g ai/ha) was 100 and the “Oat, Wild plant response rating” value (oat, wild; Postemergence, 31 g ai/ha) was 25. The “Oat, Wild plant response rating” value (oat, wild; Postemergence, 125 g ai/ha) was 30, the “Oat, Wild plant response rating” value (oat, wild; Postemergence, 250 g ai/ha) was 40 and the “Oat, Wild plant response rating” value (oat, wild; postemergence, 62 g ai/ha) was 25. For the same compound, the “Plant response rating, Ryegrass, Italian” value (ryegrass, Italian; 62 g ai/ha) was 0, the “Plant response rating, Ryegrass, Italian” value (ryegrass, Italian; 125 g ai/ha) was 40 and the “Plant response rating, Ryegrass, Italian” value (ryegrass, Italian; 250 g ai/ha) was 80. For the same compound, the “Plant response rating, Bromegrass, Downy” value (bromegrass, downy; 31 g ai/ha) was 25, the “Plant response rating, Bromegrass, Downy” value (bromegrass, downy; 62 g ai/ha) was 35 and the “Plant response rating, Bromegrass, Downy” value (bromegrass, downy; 125 g ai/ha) was 35. For the same compound, the “Plant response rating, Bromegrass, Downy” value (bromegrass, downy; 250 g ai/ha) was 50, the “Field Poppy plant response rating” value (field poppy; Postemergence, 31 g ai/ha) was 50 and the “Field Poppy plant response rating” value (field poppy; Postemergence, 125 g ai/ha) was 50. The “Field Poppy plant response rating” value (field poppy; Postemergence, 250 g ai/ha) was 75, the “Field Poppy plant response rating” value (field poppy; postemergence, 62 g ai/ha) was 50 and the “Canarygrass plant response rating” value (canarygrass; Postemergence, 31 g ai/ha) was 15. The “Canarygrass plant response rating” value (canarygrass; Postemergence, 125 g ai/ha) was 15, the “Canarygrass plant response rating” value (canarygrass; Postemergence, 250 g ai/ha) was 20 and the “Canarygrass plant response rating” value (canarygrass; postemergence, 62 g ai/ha) was 15. The “Plant response rating, Buckwheat, Wild” value (buckwheat, wild; 31 g ai/ha) was 35, the “Plant response rating, Buckwheat, Wild” value (buckwheat, wild; 62 g ai/ha) was 60 and the “Plant response rating, Buckwheat, Wild” value (buckwheat, wild; 125 g ai/ha) was 100. For the same compound, the “Plant response rating, Buckwheat, Wild” value (buckwheat, wild; 250 g ai/ha) was 100, the “Bluegrass plant response rating” value (bluegrass; Postemergence, 31 g ai/ha) was 20 and the “Bluegrass plant response rating” value (bluegrass; Postemergence, 125 g ai/ha) was 25. For the same compound, the “Bluegrass plant response rating” value (bluegrass; Postemergence, 250 g ai/ha) was 35, the “Bluegrass plant response rating” value (bluegrass; postemergence, 62 g ai/ha) was 20 and the “Lambsquarters plant response rating” value (lambsquarters [2]; Postemergence, 31 g ai/ha) was 50. The “Lambsquarters plant response rating” value (lambsquarters [2]; Postemergence, 125 g ai/ha) was 60, the “Lambsquarters plant response rating” value (lambsquarters [2]; Postemergence, 250 g ai/ha) was 80 and the “Lambsquarters plant response rating” value (lambsquarters [2]; postemergence, 62 g ai/ha) was 50.
`CCc1cc(C(=O)NCC(F)(F)F)nn1Cc1ccnc(SC(F)(F)F)c1` [Compound 214] was tested, and the “Pigweed plant response rating” value (pigweed; Postemergence, 31 g ai/ha) was 90, the “Pigweed plant response rating” value (pigweed; Postemergence, 125 g ai/ha) was 90 and the “Pigweed plant response rating” value (pigweed; Postemergence, 250 g ai/ha) was 95. The “Pigweed plant response rating” value (pigweed; postemergence, 62 g ai/ha) was 90, the “Oilseed Rape plant response rating” value (oilseed rape; Postemergence, 31 g ai/ha) was 65 and the “Oilseed Rape plant response rating” value (oilseed rape; Postemergence, 125 g ai/ha) was 75. The “Oilseed Rape plant response rating” value (oilseed rape; Postemergence, 250 g ai/ha) was 100, the “Oilseed Rape plant response rating” value (oilseed rape; postemergence, 62 g ai/ha) was 65 and the “Plant response rating, Lambsquarters” value (lambsquarters [1]; 62 g ai/ha) was 90. For the same compound, the “Plant response rating, Lambsquarters” value (lambsquarters [1]; 125 g ai/ha) was 100, the “Plant response rating, Lambsquarters” value (lambsquarters [1]; 250 g ai/ha) was 100 and the “Oat, Wild plant response rating” value (oat, wild; Postemergence, 31 g ai/ha) was 15. For the same compound, the “Oat, Wild plant response rating” value (oat, wild; Postemergence, 125 g ai/ha) was 20, the “Oat, Wild plant response rating” value (oat, wild; Postemergence, 250 g ai/ha) was 40 and the “Oat, Wild plant response rating” value (oat, wild; postemergence, 62 g ai/ha) was 15. For the same compound, the “Plant response rating, Ryegrass, Italian” value (ryegrass, Italian; 62 g ai/ha) was 55, the “Plant response rating, Ryegrass, Italian” value (ryegrass, Italian; 125 g ai/ha) was 70 and the “Plant response rating, Ryegrass, Italian” value (ryegrass, Italian; 250 g ai/ha) was 90. For the same compound, the “Plant response rating, Bromegrass, Downy” value (bromegrass, downy; 31 g ai/ha) was 15, the “Plant response rating, Bromegrass, Downy” value (bromegrass, downy; 62 g ai/ha) was 25 and the “Plant response rating, Bromegrass, Downy” value (bromegrass, downy; 125 g ai/ha) was 35. For the same compound, the “Plant response rating, Bromegrass, Downy” value (bromegrass, downy; 250 g ai/ha) was 80, the “Field Poppy plant response rating” value (field poppy; Postemergence, 31 g ai/ha) was 70 and the “Field Poppy plant response rating” value (field poppy; Postemergence, 125 g ai/ha) was 70. For the same compound, the “Field Poppy plant response rating” value (field poppy; Postemergence, 250 g ai/ha) was 80, the “Field Poppy plant response rating” value (field poppy; postemergence, 62 g ai/ha) was 70 and the “Canarygrass plant response rating” value (canarygrass; Postemergence, 31 g ai/ha) was 15. The “Canarygrass plant response rating” value (canarygrass; Postemergence, 125 g ai/ha) was 15, the “Canarygrass plant response rating” value (canarygrass; Postemergence, 250 g ai/ha) was 30 and the “Canarygrass plant response rating” value (canarygrass; postemergence, 62 g ai/ha) was 15. For the same compound, the “Plant response rating, Buckwheat, Wild” value (buckwheat, wild; 31 g ai/ha) was 35, the “Plant response rating, Buckwheat, Wild” value (buckwheat, wild; 62 g ai/ha) was 95 and the “Plant response rating, Buckwheat, Wild” value (buckwheat, wild; 125 g ai/ha) was 90. The “Plant response rating, Buckwheat, Wild” value (buckwheat, wild; 250 g ai/ha) was 100, the “Bluegrass plant response rating” value (bluegrass; Postemergence, 31 g ai/ha) was 15 and the “Bluegrass plant response rating” value (bluegrass; Postemergence, 125 g ai/ha) was 15. For the same compound, the “Bluegrass plant response rating” value (bluegrass; Postemergence, 250 g ai/ha) was 20, the “Bluegrass plant response rating” value (bluegrass; postemergence, 62 g ai/ha) was 15 and the “Lambsquarters plant response rating” value (lambsquarters [2]; Postemergence, 31 g ai/ha) was 65. For the same compound, the “Lambsquarters plant response rating” value (lambsquarters [2]; Postemergence, 125 g ai/ha) was 80, the “Lambsquarters plant response rating” value (lambsquarters [2]; Postemergence, 250 g ai/ha) was 90 and the “Lambsquarters plant response rating” value (lambsquarters [2]; postemergence, 62 g ai/ha) was 65.
For `CCc1cc(C(=O)NCC(F)(F)F)nn1Cc1ccnc(Br)c1` [Compound 224], the “Plant response rating, Arrowleaf Sida” value (arrowleaf sida; 62 g ai/ha) was 35, the “Plant response rating, Arrowleaf Sida” value (arrowleaf sida; 125 g ai/ha) was 30 and the “Plant response rating, Arrowleaf Sida” value (arrowleaf sida; 250 g ai/ha) was 35.
